Test results published in US7872018B2, “Compounds and methods for kinase modulation, and indications therefor” (Plexxikon, Inc., priority 2006, dated 2011).

Key:
Kdr = Kdr (Homo sapiens, UniProt P35968); assay: Kdr kinase activity assay; assay type: biochemical; details: under the test conditions employed; read-out: IC50 toward kinase Kdr
Fms = target: T1, Fms (Homo sapiens, UniProt P07333); assay: Fms biochemical assay (AlphaScreen or 33P-ATP); details: under the test conditions employed; read-out: IC50 toward kinase Fms
T1 construct: purchased Upstate Biotech 14-551
Text: Each sample was at 5% DMSO.

TrkA = target: T2, TrkA (Homo sapiens, UniProt P04629); assay: TrkA biochemical assay (AlphaScreen); details: under the test conditions employed; read-out: IC50 toward kinase TrkA
T2 construct: purchased Upstate Biotech 14-571
Procedure: Compounds tested were dissolved in DMSO (1 μL) and added to a white 384-well plate (Costar #3705). […] Each sample was at 5% DMSO. The plate was then incubated for 40 minutes at room temperature.

HGK = HGK (Homo sapiens, UniProt O95819); assay: HGK (MAP4K4) biochemical assay (AlphaScreen); details: under the test conditions employed; read-out: IC50 toward kinase HGK
Procedure: Substrate was 10 nM biotin-ERM (T567/T564/T558, Cell Signaling, Inc., cat#1344). MAP4K4 kinase was at 0.5 ng per sample. After incubation of the kinase reaction for 40 min at room temperature, 5 μl of donor beads and protein A acceptor beads (Perkin Elmer Life Science, cat#67606017) at final concentration 1 μg/ml in stop buffer (20 mM Tris, pH 7.4, 200 mM Nacl, 100 mM EDTA, 0.03% BSA) was added, along with Phospho-ERM Antibody (T567/T564/T558, Cell Signaling, Inc., cat#3141) at 1:1000 dilution. […] Phosphorylated substrate results in binding of the antibody which binds to protein A acceptor bead and association of the donor and acceptor beads is such that the signal correlates with kinase activity.

Kit = target: T3, Kit (Homo sapiens, UniProt P10721); assay: c-kit biochemical assay (AlphaScreen or 33P-ATP); details: under the test conditions employed; read-out: IC50 toward kinase Kit
T3 construct: P1332.N6 BI PTP KIT M552-K948-X COD; made in house; host or cells: E. coli BL21(DE3)RIL, co-expressed with PTP1B
Procedure: C-kit kinase was at 1 ng per sample.
The c-kit enzyme used in the above assay was either obtained from Cell Signaling Technology (Cat. #7754) or was prepared as follows: A plasmid encoding kit (DNA and encoded protein sequences shown below) was engineered using common polymerase chain reaction (PCR) methods. Complementary DNA cloned from various human tissues were purchased from Invitrogen, and these were used as substrates in the PCR reactions. Specific custom synthetic oligonucleotide primers were designed to initiate the PCR product, and also to provide the appropriate restriction enzyme cleavage sites for ligation with the plasmids. The entire sequence encoding the enzyme was made through a gene synthesis procedure, using custom synthetic oligonucleotides covering the entire coding sequence (Invitrogen, see below).

B-Raf V600E = B-Raf V600E (Homo sapiens, UniProt P15056, V600E); assay: B-Raf V600E kinase activity assay; assay type: biochemical; details: under the test conditions employed; read-out: IC50 toward kinase B-Raf V600E
Chain of B-Raf V600E (P15056 whole entry V600E): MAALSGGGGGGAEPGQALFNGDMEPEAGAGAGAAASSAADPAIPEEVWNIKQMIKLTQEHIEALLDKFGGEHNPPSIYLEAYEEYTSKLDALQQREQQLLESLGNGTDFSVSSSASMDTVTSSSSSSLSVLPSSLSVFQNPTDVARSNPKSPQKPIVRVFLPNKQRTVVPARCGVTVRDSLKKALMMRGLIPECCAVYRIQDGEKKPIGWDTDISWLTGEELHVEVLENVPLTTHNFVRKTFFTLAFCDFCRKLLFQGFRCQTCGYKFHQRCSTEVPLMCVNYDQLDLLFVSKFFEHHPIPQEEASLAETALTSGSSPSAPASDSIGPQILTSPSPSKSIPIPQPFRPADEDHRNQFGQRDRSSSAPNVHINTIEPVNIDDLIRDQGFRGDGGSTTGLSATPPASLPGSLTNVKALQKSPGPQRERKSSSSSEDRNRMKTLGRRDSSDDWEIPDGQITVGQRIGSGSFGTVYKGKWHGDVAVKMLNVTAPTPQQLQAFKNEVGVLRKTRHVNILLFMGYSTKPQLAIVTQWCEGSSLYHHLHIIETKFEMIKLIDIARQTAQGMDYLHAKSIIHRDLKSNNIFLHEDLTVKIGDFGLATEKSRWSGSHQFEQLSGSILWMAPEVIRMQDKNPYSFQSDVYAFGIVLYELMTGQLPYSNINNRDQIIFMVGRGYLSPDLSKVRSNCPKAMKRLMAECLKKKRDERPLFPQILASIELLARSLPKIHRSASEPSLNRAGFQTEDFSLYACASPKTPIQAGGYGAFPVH

T2 sequence (P04629 33-796): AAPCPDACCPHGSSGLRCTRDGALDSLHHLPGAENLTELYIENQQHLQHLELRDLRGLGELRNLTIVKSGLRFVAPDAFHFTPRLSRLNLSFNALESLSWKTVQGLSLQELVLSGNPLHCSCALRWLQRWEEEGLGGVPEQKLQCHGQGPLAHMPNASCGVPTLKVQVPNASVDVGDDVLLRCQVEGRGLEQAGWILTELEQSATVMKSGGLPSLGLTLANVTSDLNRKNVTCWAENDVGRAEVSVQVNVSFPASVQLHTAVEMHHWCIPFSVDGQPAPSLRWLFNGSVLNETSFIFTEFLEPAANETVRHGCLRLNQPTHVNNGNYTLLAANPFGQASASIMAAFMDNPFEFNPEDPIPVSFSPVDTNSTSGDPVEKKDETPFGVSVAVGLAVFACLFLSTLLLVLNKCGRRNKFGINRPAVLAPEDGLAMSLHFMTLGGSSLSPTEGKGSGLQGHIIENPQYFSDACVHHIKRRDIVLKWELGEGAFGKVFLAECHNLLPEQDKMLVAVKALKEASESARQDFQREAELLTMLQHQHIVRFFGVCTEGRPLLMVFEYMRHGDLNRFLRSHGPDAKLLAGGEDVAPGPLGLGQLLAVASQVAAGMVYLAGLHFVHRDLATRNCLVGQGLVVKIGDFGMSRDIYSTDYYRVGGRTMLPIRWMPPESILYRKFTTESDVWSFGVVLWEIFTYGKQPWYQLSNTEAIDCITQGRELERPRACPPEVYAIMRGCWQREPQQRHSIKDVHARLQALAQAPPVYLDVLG
T1 sequence (P07333 20-972): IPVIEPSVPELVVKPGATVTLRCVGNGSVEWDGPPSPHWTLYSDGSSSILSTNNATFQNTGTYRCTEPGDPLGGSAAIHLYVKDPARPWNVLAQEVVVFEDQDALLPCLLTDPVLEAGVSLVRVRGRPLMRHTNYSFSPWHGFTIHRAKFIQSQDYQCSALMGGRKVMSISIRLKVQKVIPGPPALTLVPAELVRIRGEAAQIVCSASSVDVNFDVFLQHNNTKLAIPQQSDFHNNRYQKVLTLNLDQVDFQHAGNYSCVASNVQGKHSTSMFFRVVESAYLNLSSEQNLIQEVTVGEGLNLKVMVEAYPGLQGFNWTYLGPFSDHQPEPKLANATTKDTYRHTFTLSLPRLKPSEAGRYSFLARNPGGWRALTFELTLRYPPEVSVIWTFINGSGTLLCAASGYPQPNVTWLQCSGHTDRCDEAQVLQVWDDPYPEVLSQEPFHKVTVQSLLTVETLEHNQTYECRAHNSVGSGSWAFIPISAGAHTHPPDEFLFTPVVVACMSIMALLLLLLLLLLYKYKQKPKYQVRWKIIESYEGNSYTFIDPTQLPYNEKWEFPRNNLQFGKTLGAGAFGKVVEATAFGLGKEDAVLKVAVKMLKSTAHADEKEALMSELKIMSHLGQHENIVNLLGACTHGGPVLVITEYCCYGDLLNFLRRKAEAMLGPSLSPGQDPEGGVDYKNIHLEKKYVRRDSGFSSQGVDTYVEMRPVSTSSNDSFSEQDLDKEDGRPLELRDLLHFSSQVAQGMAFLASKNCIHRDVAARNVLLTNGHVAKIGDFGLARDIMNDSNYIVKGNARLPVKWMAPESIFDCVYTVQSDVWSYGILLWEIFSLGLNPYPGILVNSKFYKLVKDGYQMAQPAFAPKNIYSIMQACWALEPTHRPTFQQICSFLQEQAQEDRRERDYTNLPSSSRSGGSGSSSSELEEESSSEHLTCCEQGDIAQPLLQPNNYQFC
Chain of HGK (O95819 whole entry): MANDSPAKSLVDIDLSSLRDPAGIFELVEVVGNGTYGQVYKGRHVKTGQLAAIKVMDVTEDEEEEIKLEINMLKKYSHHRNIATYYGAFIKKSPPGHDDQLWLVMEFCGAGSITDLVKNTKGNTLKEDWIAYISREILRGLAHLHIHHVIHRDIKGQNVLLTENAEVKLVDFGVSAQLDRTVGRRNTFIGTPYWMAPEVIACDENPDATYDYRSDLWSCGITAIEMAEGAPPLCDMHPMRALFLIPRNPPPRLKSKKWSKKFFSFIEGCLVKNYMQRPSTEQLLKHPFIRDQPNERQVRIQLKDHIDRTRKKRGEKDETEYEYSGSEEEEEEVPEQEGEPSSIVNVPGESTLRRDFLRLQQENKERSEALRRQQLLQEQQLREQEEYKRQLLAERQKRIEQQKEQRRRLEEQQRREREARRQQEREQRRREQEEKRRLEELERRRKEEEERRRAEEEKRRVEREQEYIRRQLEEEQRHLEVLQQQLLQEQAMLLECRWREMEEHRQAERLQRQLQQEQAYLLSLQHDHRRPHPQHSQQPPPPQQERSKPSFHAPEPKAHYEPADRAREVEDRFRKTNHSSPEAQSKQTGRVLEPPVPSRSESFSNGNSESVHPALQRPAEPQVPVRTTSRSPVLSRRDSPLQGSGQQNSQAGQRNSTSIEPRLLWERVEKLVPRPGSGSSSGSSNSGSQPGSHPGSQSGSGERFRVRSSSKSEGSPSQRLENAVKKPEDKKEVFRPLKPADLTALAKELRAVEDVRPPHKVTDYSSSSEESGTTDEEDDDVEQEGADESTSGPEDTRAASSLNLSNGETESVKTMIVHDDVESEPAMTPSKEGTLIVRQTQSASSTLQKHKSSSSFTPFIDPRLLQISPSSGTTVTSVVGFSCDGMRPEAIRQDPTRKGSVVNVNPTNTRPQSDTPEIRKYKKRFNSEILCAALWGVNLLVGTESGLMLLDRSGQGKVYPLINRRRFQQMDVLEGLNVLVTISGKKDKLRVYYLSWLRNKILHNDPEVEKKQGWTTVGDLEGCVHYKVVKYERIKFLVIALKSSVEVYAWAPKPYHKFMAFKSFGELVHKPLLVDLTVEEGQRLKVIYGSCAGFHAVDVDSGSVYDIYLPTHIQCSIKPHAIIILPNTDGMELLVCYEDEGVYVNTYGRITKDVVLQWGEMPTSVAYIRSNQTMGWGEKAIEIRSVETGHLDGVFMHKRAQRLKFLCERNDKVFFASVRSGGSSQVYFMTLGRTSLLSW
T3 sequence (P10721 552-948): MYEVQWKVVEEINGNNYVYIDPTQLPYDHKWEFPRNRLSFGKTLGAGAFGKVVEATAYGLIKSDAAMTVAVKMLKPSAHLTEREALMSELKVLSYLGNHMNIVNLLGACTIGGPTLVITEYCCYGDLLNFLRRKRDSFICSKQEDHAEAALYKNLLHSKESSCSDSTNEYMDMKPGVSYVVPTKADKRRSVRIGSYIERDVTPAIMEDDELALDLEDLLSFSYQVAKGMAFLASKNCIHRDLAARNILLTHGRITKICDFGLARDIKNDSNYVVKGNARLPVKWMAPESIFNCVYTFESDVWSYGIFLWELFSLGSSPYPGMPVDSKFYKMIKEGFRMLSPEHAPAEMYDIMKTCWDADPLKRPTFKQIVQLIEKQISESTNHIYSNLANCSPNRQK

Compound	IC50 (Kdr) [µM]	IC50 (Fms) [µM]	IC50 (TrkA) [µM]	IC50 (HGK) [µM]	IC50 (Kit) [µM]	IC50 (B-Raf V600E) [µM]
COc1cc(Cc2c[nH]c3ncc(Cl)cc23)c(F)cc1OCc1nc2cc(C(F)(F)F)ccc2[nH]1 [P-2178, 2-[4-(5-Chloro-1H-pyrrolo[2,3-b]pyridin-3-ylmethyl)-5-fluoro-2-methoxy-phenoxymethyl]-5-trifluoromethyl-1H-benzoimidazole]		≤ 10	≤ 10	≤ 10	≤ 10	
COc1cc(Cc2c[nH]c3ncccc23)c(Cl)cc1OCc1nc2ccccc2[nH]1 [P-2103, 2-[5-Chloro-2-methoxy-4-(1H-pyrrolo[2,3-b]pyridin-3-ylmethyl)-phenoxymethyl]-1H-benzoimidazole]		≤ 10	≤ 10	≤ 10		
COc1cc(Cc2c[nH]c3ncc(Cl)cc23)c(Cl)cc1OCc1nc2ccccc2[nH]1 [P-2104, 2-[5-Chloro-4-(5-chloro-1H-pyrrolo[2,3-b]pyridin-3-ylmethyl)-2-methoxy-phenoxymethyl]-1H-benzoimidazole]		≤ 10	≤ 10	≤ 10		
COc1cc(Cc2c[nH]c3ncc(C(=O)O)cc23)c(F)cc1OCc1nc2ccccc2[nH]1 [P-2175, 3-[4-(1H-Benzoimidazol-2-ylmethoxy)-2-fluoro-5-methoxy-benzyl]-1H-pyrrolo[2,3-b]pyridine-5-carboxylic acid]		≤ 10	≤ 10	≤ 10		
COc1cc(Cc2c[nH]c3ncc(F)cc23)c(F)cc1OCc1nc2ccccc2[nH]1 [P-2115, 2-[5-Fluoro-4-(5-fluoro-1H-pyrrolo[2,3-b]pyridin-3-ylmethyl)-2-methoxy-phenoxymethyl]-1H-benzoimidazole]		≤ 10	≤ 10	≤ 10		
COc1cc(Cc2c[nH]c3ncc(Cl)cc23)c(F)cc1OC(C)c1nc2ccccc2[nH]1 (stereo not shown) [P-2110, 2-{1-[4-(5-Chloro-1H-pyrrolo[2,3-b]pyridin-3-ylmethyl)-5-fluoro-2-methoxy-phenoxy]-ethyl}-1H-benzoimidazole]		≤ 10	≤ 10	≤ 10	≤ 10	
CCOc1cc(Cc2c[nH]c3ncccc23)ccc1OCc1ccc(Cl)cc1 [P-1470, 3-[4-(4-Chloro-benzyloxy)-3-ethoxy-benzyl]-1H-pyrrolo[2,3-b]pyridine]		≤ 10			≤ 10	≤ 10
COc1cc(Cc2c[nH]c3ncccc23)ccc1OCc1c(Cl)cccc1Cl [P-1579, 3-[4-(2,6-Dichloro-benzyloxy)-3-methoxy-benzyl]-1H-pyrrolo[2,3-b]pyridine]						≤ 10
Fc1cc(Cc2c[nH]c3ncc(Cl)cc23)c(Cl)cc1OCc1nc2ccccc2[nH]1 [P-2099, 2-[5-Chloro-4-(5-chloro-1H-pyrrolo[2,3-b]pyridin-3-ylmethyl)-2-fluoro-phenoxymethyl]-1H-benzoimidazole]		≤ 10	≤ 10	≤ 10		
COc1cc(Cc2c[nH]c3ncc(C#N)cc23)c(F)cc1OCc1nc2ccccc2[nH]1 [P-2171, 3-[4-(1H-Benzoimidazol-2-ylmethoxy)-2-fluoro-5-methoxy-benzyl]-1H-pyrrolo[2,3-b]pyridine-5-carbonitrile]		≤ 10	≤ 10	≤ 10		
COc1cc(Cc2c[nH]c3ncccc23)ccc1OCc1c(F)cc(F)cc1F [P-1578, 3-[3-Methoxy-4-(2,4,6-trifluoro-benzyloxy)-benzyl]-1H-pyrrolo[2,3-b]pyridine]					≤ 10	≤ 10

The remaining lines, values ahead:

IC50 (Kdr) [µM]	IC50 (Fms) [µM]	IC50 (TrkA) [µM]	IC50 (HGK) [µM]	IC50 (Kit) [µM]	IC50 (B-Raf V600E) [µM]	Compound
≤ 10	≤ 10					O=C(c1c(F)ccc(OCC(F)(F)F)c1Cl)c1c[nH]c2ncccc12 [P-2150, [2-Chloro-6-fluoro-3-(2,2,2-trifluoro-ethoxy)-phenyl]-(1H-pyrrolo[2,3-b]pyridin-3-yl)-methanone]
	≤ 10	≤ 10	≤ 10	≤ 10		COc1cc(Cc2c[nH]c3ncc(Cl)cc23)c(F)cc1OCc1nc2cc(Cl)ccc2[nH]1 [P-2111, 6-Chloro-2-[4-(5-chloro-1H-pyrrolo[2,3-b]pyridin-3-ylmethyl)-5-fluoro-2-methoxy-phenoxymethyl]-1H-benzoimidazole]
	≤ 10	≤ 10	≤ 10	≤ 10		COc1cc(Cc2c[nH]c3ncc(Cl)cc23)c(F)cc1OCCc1nc2ccccc2[nH]1 [P-2180, 2-{2-[4-(5-Chloro-1H-pyrrolo[2,3-b]pyridin-3-ylmethyl)-5-fluoro-2-methoxy-phenoxy]-ethyl}-1H-benzoimidazole]
≤ 10	≤ 10					COc1cnc2[nH]cc(Cc3c(F)ccc(OCC(F)(F)F)c3Cl)c2c1 [P-2147, 3-[2-Chloro-6-fluoro-3-(2,2,2-trifluoro-ethoxy)-benzyl]-5-methoxy-1H-pyrrolo[2,3-b]pyridine]
	≤ 10	≤ 10	≤ 10	≤ 10		COc1cc(Cc2c[nH]c3ncccc23)c(F)cc1OCc1nc2ccc(Cl)cc2[nH]1 [P-2112, 6-Chloro-2-[5-fluoro-2-methoxy-4-(1H-pyrrolo[2,3-b]pyridin-3-ylmethyl)-phenoxymethyl]-1H-benzoimidazole]
	≤ 10			≤ 10	≤ 10	COc1cc(Cc2c[nH]c3ncccc23)cc(F)c1OCc1ccc(Cl)cc1 [P-1466, 3-[4-(4-Chloro-benzyloxy)-3-fluoro-5-methoxy-benzyl]-1H-pyrrolo[2,3-b]pyridine]
	≤ 10	≤ 10	≤ 10	≤ 10		COC(=O)c1cnc2[nH]cc(Cc3cc(OC)c(OCc4nc5ccccc5[nH]4)cc3F)c2c1 [P-2174, 3-[4-(1H-Benzimidazol-2-ylmethoxy)-2-fluoro-5-methoxy-benzyl]-1H-pyrrolo[2,3-b]pyridine-5-carboxylic acid methyl ester]
	≤ 10	≤ 10	≤ 10	≤ 10		COc1cc(Cc2c[nH]c3ncc(Cl)cc23)c(F)cc1OCc1nc2ccccc2n1C [P-2106, 2-[4-(5-Chloro-1H-pyrrolo[2,3-b]pyridin-3-ylmethyl)-5-fluoro-2-methoxy-phenoxymethyl]-1-methyl-1H-benzoimidazole]
	≤ 10	≤ 10	≤ 10			COc1cnc2[nH]cc(Cc3cc(Cl)c(OCc4nc5ccccc5[nH]4)cc3F)c2c1 [P-2116, 2-[2-Chloro-5-fluoro-4-(5-methoxy-1H-pyrrolo[2,3-b]pyridin-3-ylmethyl)-phenoxymethyl]-1H-benzoimidazole]
					≤ 10	COc1cc(C(=O)c2c[nH]c3ncccc23)ccc1OCc1ccc(Cl)cc1 [P-1698, [4-(4-Chloro-benzyloxy)-3-methoxy-phenyl]-(1H-pyrrolo[2,3-b]pyridin-3-yl)-methanone]
	≤ 10	≤ 10	≤ 10	≤ 10		COc1cc(Cc2c[nH]c3ncc(Cl)cc23)c(F)cc1OCc1nc2cc(Cl)c(Cl)cc2[nH]1 [P-2172, 5,6-Dichloro-2-[4-(5-chloro-1H-pyrrolo[2,3-b]pyridin-3-ylmethyl)-5-fluoro-2-methoxy-phenoxymethyl]-1H-benzoimidazole]
	≤ 10	≤ 10	≤ 10			COc1ccc2[nH]c(COc3cc(F)c(Cc4c[nH]c5ncc(Cl)cc45)cc3OC)nc2c1 [P-2182, 2-[4-(5-Chloro-1H-pyrrolo[2,3-b]pyridin-3-ylmethyl)-5-fluoro-2-methoxy-phenoxymethyl]-5-methoxy-1H-benzoimidazole]
					≤ 10	FC(F)(F)c1ccc(COc2ccc(Cc3c[nH]c4ncccc34)cc2C(F)(F)F)cc1 [P-1797, 3-[3-Trifluoromethyl-4-(4-trifluoromethyl-benzyloxy)-benzyl]-1H-pyrrolo[2,3-b]pyridine]
	≤ 10			≤ 10	≤ 10	Clc1ccc(COc2ccc(Cc3c[nH]c4ncccc34)c(Cl)c2)cc1 [P-1471, 3-[2-Chloro-4-(4-chloro-benzyloxy)-benzyl]-1H-pyrrolo[2,3-b]pyridine]
≤ 10	≤ 10					COc1cnc2[nH]cc(Cc3c(Cl)ccc(OCC(F)(F)F)c3Cl)c2c1 [P-2153, 3-[2,6-Dichloro-3-(2,2,2-trifluoro-ethoxy)-benzyl]-5-methoxy-1H-pyrrolo[2,3-b]pyridine]
